Results: ChEMBL document CHEMBL1138436, “Biological activity and chemistry of taxoids from the Japanese yew, Taxus cuspidata” (J Nat Prod, 2004)
In brackets after ≈: the same amount, converted by molar mass.

Legend:
[1] = system: KB; assay: Cytotoxicity against human KB cells; type: functional, cell-based
[2] = Reversal of multidrug resistance in human 2780AD cells assessed as increase in vincristine accumulation relative to verapamil; type: functional, A2780 ADR; parameters: concentration or dose not given beside the values

| Structure (SMILES) | IC50 [1] | Activity [2] |
| --- | --- | --- |
| C=C1[C@@H](O)CC[C@@]2(C)[C@@H](OC(C)=O)[C@H](OC(C)=O)C3=C(C)C(=O)C[C@@](O)([C@@H](OC(C)=O)[C@H]12)C3(C)C | 80 ng/mL (≈ 162 nM) |  |
| CC(=O)O[C@@]12CO[C@@H]1C[C@H](O)[C@@]1(C)C(=O)[C@H](O)C3=C(C)[C@@H](OC(=O)[C@H](O)[C@@H](NC(=O)c4ccccc4)c4ccccc4)C[C@@](O)([C@@H](OC(=O)c4ccccc4)[C@H]21)C3(C)C | 1.5 ng/mL (≈ 1.85 nM) |  |
| C/C=C(\C)C(=O)N[C@@H](c1ccccc1)[C@@H](O)C(=O)O[C@H]1C[C@@]2(O)[C@@H](OC(=O)c3ccccc3)[C@@H]3[C@]4(OC(C)=O)CO[C@@H]4C[C@H](O)[C@@]3(C)C(=O)[C@H](O)C(=C1C)C2(C)C | 1.5 ng/mL (≈ 1.9 nM) |  |
| CC(=O)O[C@@]12CO[C@@H]1C[C@@H](O)[C@@]1(C)C(=O)[C@H](O)C3=C(C)[C@@H](OC(=O)[C@H](O)[C@@H](NC(=O)c4ccccc4)c4ccccc4)C[C@@](O)([C@@H](OC(=O)c4ccccc4)[C@H]21)C3(C)C | 1.5 ng/mL (≈ 1.85 nM) |  |
| CC(=O)O[C@H]1C(=O)[C@]2(C)[C@H](O)C[C@H]3OC[C@@]3(OC(C)=O)[C@H]2[C@H](OC(=O)c2ccccc2)[C@]2(O)C[C@H](OC(=O)[C@H](O)[C@@H](NC(=O)c3ccccc3)c3ccccc3)C(C)=C1C2(C)C | 1.5 ng/mL (≈ 1.76 nM) |  |
| CCCCCC(=O)N[C@@H](c1ccccc1)[C@@H](O)C(=O)O[C@H]1C[C@@]2(O)[C@@H](OC(=O)c3ccccc3)[C@@H]3[C@]4(OC(C)=O)CO[C@@H]4C[C@H](O)[C@@]3(C)C(=O)[C@H](O)C(=C1C)C2(C)C [10-DEACETYLTAXAYUNNANINE A] | 1.5 ng/mL (≈ 1.86 nM) |  |
| C=C1[C@H]2C[C@]3(C(C)(C)O)C[C@H](O)C(C)=C3[C@@H](OC(=O)c3ccccc3)[C@H](OC(C)=O)[C@]2(C)[C@@H](OC(C)=O)C[C@@H]1O [BREVIFOLIOL] | 80 ng/mL (≈ 144 nM) |  |
| C/C=C(\C)C(=O)N[C@@H](c1ccccc1)[C@@H](O)C(=O)O[C@H]1C[C@@]2(O)[C@@H](OC(=O)c3ccccc3)[C@@H]3[C@]4(OC(C)=O)CO[C@@H]4C[C@H](O)[C@@]3(C)C(=O)[C@H](OC(C)=O)C(=C1C)C2(C)C [CEPHALOMANNINE] | 1.5 ng/mL (≈ 1.8 nM) |  |
| CC(=O)O[C@H]1C(=O)[C@@]2(C)[C@H]([C@H](OC(=O)c3ccccc3)[C@]3(O)C[C@H](OC(=O)[C@H](O)[C@@H](NC(=O)c4ccccc4)c4ccccc4)C(C)=C1C3(C)C)[C@]1(OC(C)=O)CO[C@@H]1C[C@@H]2O [PACLITAXEL] | 1.5 ng/mL (≈ 1.76 nM) |  |
| C=C1[C@@H](OC(=O)/C=C/c2ccccc2)C[C@H](OC(C)=O)[C@@]2(C)[C@@H](OC(C)=O)[C@H](OC(C)=O)[C@]3(O)[C@@]4(C)CO[C@]3(C)C(=O)C[C@H]4[C@@H](OC(C)=O)[C@H]12 [TAXAGIFINE] | 80 ng/mL (≈ 115 nM) |  |
| CCCC(=O)N[C@@H](c1ccccc1)[C@@H](O)C(=O)O[C@H]1C[C@@]2(O)[C@@H](OC(=O)c3ccccc3)[C@@H]3[C@]4(OC(C)=O)CO[C@@H]4C[C@H](O)[C@@]3(C)C(=O)[C@H](OC(C)=O)C(=C1C)C2(C)C [TAXCULTIN] | 1.5 ng/mL (≈ 1.83 nM) |  |
| CCCCCC(=O)N[C@@H](c1ccccc1)[C@@H](O)C(=O)O[C@H]1C[C@@]2(O)[C@@H](OC(=O)c3ccccc3)[C@@H]3[C@]4(OC(C)=O)CO[C@@H]4C[C@H](O)[C@@]3(C)C(=O)[C@H](OC(C)=O)C(=C1C)C2(C)C [TAXOL C] | 1.5 ng/mL (≈ 1.77 nM) |  |
| C/C=C(\C)C(=O)O[C@@H]1C2=C(C)[C@@H](O)C[C@@](C(C)(C)O)([C@@H](OC(C)=O)[C@@H]3[C@]4(OC(C)=O)CO[C@@H]4C[C@H](OC(C)=O)[C@@]3(C)[C@H]1OC(C)=O)C2(C)C [TAXUSPINE Q] | 80 ng/mL (≈ 115 nM) |  |
| C=C1[C@@H](OC(=O)/C=C/c2ccccc2)C[C@H](OC(C)=O)[C@@]2(CO)[C@@H](OC(C)=O)[C@H](OC(C)=O)[C@]3(O)[C@@]4(C)CO[C@]3(C)C(=O)C[C@H]4[C@@H](OC(C)=O)[C@H]12 [TAXUSPINE S] | 80 ng/mL (≈ 112 nM) |  |
| C=C1[C@@H](OC(=O)C[C@H](c2ccccc2)N(C)C)CC[C@@]2(C)[C@@H](OC(C)=O)[C@H](OC(C)=O)C3=C(C)[C@@H](OC(C)=O)C[C@@H]([C@@H](O)[C@H]12)C3(C)C [TAXUSPINE Z] |  | 106% |
